Laboratory results published in patent publication US7622450B2, “Flavone C-glycoside derivatives and compositions containing the derivatives” (Suntory Holdings Limited, priority 2002, dated 2009).

Columns and labels:
DNFB-induced ear edema = experiment: Inhibitory effect on mouse ear contact dermatitis (DNFB-induced ear edema); format: in vivo, ICR strain mice; settings: for Dose producing 50% inhibition of ear edema: DNFB-induced ear edema, mice, p.o.; for DNFB-induced edema vs control group: ICR mice, Student's t-test
Description: (§1) ICR strain mice at 7 weeks of age were purchased from CLEA Japan and used for experiments after preconditioning for 1 week. The yellow powder obtained in Example 1 [compound (1)] was suspended in 0.5% sodium carboxymethylcellulose/0.01N hydrochloric acid to prepare sample formulations at three concentrations corresponding to doses of 0.2, 1.0 and 5.0 μg/kg in a dose volume of 10 ml/kg. […] in six mice per group was established in 5 days by subcutaneous injection of 100 μl of a solution of 1% 2,4-dinitrofluorobenzene (DNFB) in ethanol on the back. On day 6, a solution of 1% DNFB in olive oil was applied on the right ear to induce ear contact dermatitis. After 24 hours, both ears were punched out in a diameter of 8 mm and weighed. Compound (1) was continuously orally administered for 7 days from the day before the primary challenge until the day on which edema was induced. A control group was treated with 0.5% sodium carboxymethylcellulose/0.01N hydrochloric acid. The experimental results were expressed as the average percentage of edema on the right in relation to left ears with standard deviation using Student's t-test for evaluating the significance between groups.
as §1, with “(2)]” for “(1)]”, “1.0, 10” for “0.2, 1.0”, “100” for “5.0”, “(2)” for “(1)”
The same procedures as in Experimental examples 1 and 2 were used to compare the inhibitory effects of a corticosteroid and several flavonoids (FIG. 3) on DNFB-induced ear edema formation with those of compound (1) and compound (2). The experimental results were expressed as the dose producing a 50% inhibition of DNFB-induced ear edema.

peritoneal mast cells = experiment: Inhibitory effect on histamine release from peritoneal mast cells (Compound 48/80); format: cell-based, Wistar strain rats; settings: Mast cell, rat peritoneal mast cells
Description: Wistar strain rats at 7 weeks of age were purchased from CLEA Japan and used for experiments after preconditioning for 1 week. After Wistar strain rats were decapitated under ether anesthesia, Tyrode solution was intraperitoneally injected. Mast cells were routinely isolated and suspended at […] in Tyrode solution containing 0.1% bovine serum albumin (BSA) to prepare a mast cell suspension. The mast cell suspension was incubated with compound (1) or compound (2) dissolved in 50% methanol at 37° C. for 5 minutes. Then, the suspension was further incubated with Compound 48/80 at 37° C. for 10 minutes and cooled on ice and then centrifuged. Then, the free histamine content in the resulting supernatant was measured on a high-speed liquid chromatograph by the post-column method using ortho-phthalaldehyde (OPA) according to the method of Onda et al. [J. Med. Sci., 27, 93-97(1978)]. The experimental results were expressed as the percentage of histamine release inhibited by the treatment with the samples as compared with the treatment with the solvent alone.

Row | Compound | Dose producing 50% inhibition of ear edema (DNFB-induced ear edema) | further results
1 | O=c1cc(-c2ccc(O)cc2)oc2cc(O)cc(O)c12 [Apigenin] | 247 mg/kg p.o. | –
2 | O=c1cc(-c2ccc(O)cc2)oc2cc3c(c(O)c12)[C@@H]1O[C@H](CO)[C@@H](O)[C@H](O)[C@@H]1O3 [Compound (1)] | 0.05 mg/kg p.o. | inhibition at 5 µg/mL (peritoneal mast cells; concentration 5.0 μg/ml): 62.3%; DNFB-induced edema vs control group (DNFB-induced ear edema; 1.0 μg/kg orally for 7 days): significantly inhibited; DNFB-induced edema vs control group (DNFB-induced ear edema; 5.0 μg/kg orally for 7 days): significantly inhibited
3 | O=c1cc(-c2ccc(O)cc2)oc2c3c(cc(O)c12)O[C@H]1[C@@H](O)[C@H](O)[C@@H](CO)O[C@@H]31 [Compound (2)] | 0.17 mg/kg p.o. | inhibition at 50 µg/mL (peritoneal mast cells; concentration 50.0 μg/ml): 51.2%; DNFB-induced edema vs control group (DNFB-induced ear edema; 100 μg/kg orally for 7 days): significantly inhibited
4 | C[C@@H]1C[C@H]2[C@@H]3CCC4=CC(=O)C=C[C@]4(C)[C@@]3(F)[C@@H](O)C[C@]2(C)[C@@]1(O)C(=O)CO [Dexamethasone] | 1.5 mg/kg p.o. | –
5 | O=c1c(O)c(-c2ccc(O)c(O)c2)oc2cc(O)cc(O)c12 [Quercetin] | 265 mg/kg p.o. | –
6 | C[C@@H]1O[C@@H](O[C@@H]2[C@@H](O)[C@H](O)[C@@H](CO)O[C@H]2c2c(O)cc(O)c3c(=O)cc(-c4ccc(O)cc4)oc23)[C@H](O)[C@H](O)[C@H]1O [Rhamnosyl vitexin] | 146 mg/kg p.o. | –
7 | C[C@@H]1O[C@@H](OC[C@H]2O[C@@H](Oc3c(-c4ccc(O)c(O)c4)oc4cc(O)cc(O)c4c3=O)[C@H](O)[C@@H](O)[C@@H]2O)[C@H](O)[C@H](O)[C@H]1O [Rutin] | 123 mg/kg p.o. | –
8 | O=c1cc(-c2ccc(O)cc2)oc2c([C@@H]3O[C@H](CO)[C@@H](O)[C@H](O)[C@H]3O)c(O)cc(O)c12 [Vitexin] | 103 mg/kg p.o. | –
